Data from patent US10596223B2, “JNK inhibitor molecules for treatment of various diseases” (Xigen Inflammation Ltd., priority 2011, dated 2020).
Entries after “also recorded” stand apart in the source; their conditions may differ. Square brackets hold non-standard residues; d marks the D form. Peptide text beside a SMILES is read from it.

Tested on: scopolamine-induced dry eye in mice
Assay: Scopolamine-induced model of dry eye (TBUT, PRTT, histopathology)
Assay type: in vivo, mouse
Conditions: for histological scores of the cornea compared with cyclosporine group: Day 22
Experimental: The objective of this study was to assess the effects of two different compounds, the all-D-retro-inverso JNK-inhibitor (poly-)peptide of SEQ ID NO: 197 and the JNK inhibitor (poly-)peptide of SEQ ID NO: 172, at three dose levels in a mouse model of scopolamine-induced dry eye.
The peptides of SEQ ID NO: 197 and SEQ ID NO: 172 were tested for efficacy in this murine model of dry eye. The peptides were both tested at a low, medium and a high dose. […] The vehicle, which also served as the negative control, was 0.9% Sodium Chloride for Injection USP.
The study consisted of a total of 9 groups of female C57BL/6 mice, comprising 8 groups of 12 mice each and an additional group of 4 mice. Bilateral short-term dry eye was induced by a combination of scopolamine hydrobromide (Sigma-Aldrich Corp., St. Louis, Mo.) injection (subcutaneous (SC), four times daily, 0.5 mg/dose, Days 0-21) and by exposing mice to the drying environment of constant air draft. […] Mice of Group 9 were maintained as un-induced, (no dry eye) untreated controls.
During the in-life (treatment) period, clinical observations were recorded once daily; slit-lamp examination (SLE) with corneal fluorescein staining, tear break-up time test (TBUT), and phenol red thread test (PRTT) were performed three times per week. Necropsies were performed on Day 22; eyes, eye lids, conjunctivae, and lacrimal glands were collected from both eyes of each animal. Tissues from the right eyes (oculus dexter, OD) were fixed and then evaluated microscopically. Tissues from the left eyes (oculus sinister; OS) were flash-frozen in liquid nitrogen and stored frozen at −80° C. for possible subsequent analyses.
Prior to the start of the study, the (poly-)peptides of SEQ ID NO: 172 and of SEQ ID NO: 197 were formulated in sterile saline (vehicle). Dosing solutions at each concentration were sterilized using 0.2-μm filters, aliquoted to multiple pre-labeled vials, and frozen at −20° C.
Prior to entry into the study, each animal underwent a SLE and indirect ophthalmic examination using topically-applied fluorescein. Ocular findings were recorded using the Draize scale ocular scoring. SLE and Draize scoring were repeated three times a week during the in-life period.
The TBUT test was conducted three times weekly by measuring the time elapsed in seconds between a complete blink after application of fluorescein to the cornea and the appearance of the first random dry spot in the tear film. […] At least ninety seconds later, corneal epithelial damage was graded using a slit-lamp with a cobalt blue filter after another drop of 0.1% fluorescein was reapplied to the cornea; the cornea then was scored per the Draize ocular scale.
Tear production was measured three times a week in both eyes using PRTT test strips (Zone-Quick; Menicon, Nagoya, Japan). Prior to the first treatment of the day, a thread was applied to the lateral canthus of the conjunctival fornix of each eye for 30 seconds under slit-lamp biomicroscopy. Tear migration up the tread (i.e., the length of the wetted cotton thread) was measured using a millimeter scale.
At necropsy on Day 22, both eyes from each animal, including the globes, lacrimal glands, eyelids, and conjunctivae, were excised.

[1] = topical ocular TID, Days 1 to 21

In the case of `CC(C)C[C@H](NC(=O)[C@H](CC(N)=O)NC(=O)[C@H](CC(C)C)NC(=O)[C@@H](NC(=O)[C@@H](C)NC(=O)[C@@H]1CCCN1C(=O)[C@H](CCCNC(=N)N)NC(=O)[C@@H](CCCCN)NC(=O)[C@@H]1CCCN1C(=O)[C@H](CCCNC(=N)N)NC(=O)[C@@H](CCCNC(=N)N)NC(=O)[C@H](CCCNC(=N)N)NC(=O)[C@H](CCCNC(=N)N)NC(=O)[C@H](CCC(N)=O)NC(=O)[C@@H](CCCNC(=N)N)NC(=O)[C@H](CCCNC(=N)N)NC(=O)[C@H](CCCCN)NC(=O)[C@H](CCCCN)NC(=O)[C@H](N)CCCNC(=N)N)[C@@H](C)O)C(=O)N[C@H](Cc1ccccc1)C(N)=O` [SEQ ID NO: 172, rKKRrQRRrRPkRPaTLNLf] (H-[dR]KKR[dR]QRR[dR]RP[dK]RP[dA]TLNL[dF]-NH2; N-terminus assumed), the “histological scores of the cornea compared with cyclosporine group” value (0.2% (mid dose)) is reported as “the most effective, after cyclosporine”, the “histological scores of the cornea compared with cyclosporine group” value (0.6% (high dose)) is reported as “the most effective, after cyclosporine” and the “TBUT AUC compared with vehicle control (Kruskal-Wallis)” value (Day 7 to Day 21, SEQ ID NO: 172 0.05%, 0.2% and 0.6%, cyclosporine 0.05%) is reported as “significant increases in the TBUT AUC”. The “PRTT in the last test, aqueous tear production” value (Day 21, mid and high-dose (0.2%, 0.6%)) was “therapeutic effects similar to cyclosporine”, the “PRTT, production of aqueous tears, low, mid and high dose (in words)” value [1] was “significantly more aqueous tears compared to vehicle-treated animals” and the “TBUT means, low, mid and high dose (in words)” value [1] was “above the vehicle group; also recorded: dose-dependent increase in TBUT”.
